# In PubChem BioAssay AID1963421 (Molecular Pharmacology Branch, DTP, NCI, 2024):
# “And” between values parts separate entries of the source, which are not always exact repeats. Equal values may be shown once.
# Tested on: 519858-162-T-J1-PDC complex spheroid growth, % test/control
# Assay: Anticancer human tumor 519858-162-T-J1-PDC patient-derived colon adenocarcinoma cell line growth inhibition [Asc]
# Details: for viability, T/C: stronger effect = lower value
# Procedure, shortened: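 Concentration series start at each agent's clinical Cmax, or at 10 microM when none is established, and drop in half-log steps; agents are applied alone or together to complex spheroids built with HUVEC and hMSC.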
# [1] = curve of first compound, second compound 0.0316 µM
# [2] = curve of first compound, second compound 0.1 µM
# [3] = curve of first compound, second compound 0.316 µM
# [4] = curve of first compound, second compound 1 µM
# [5] = curve of first compound, second compound 3.16 µM
# [6] = curve of first compound, second compound 10 µM
# [7] = second compound 0.0316 µM, first compound 0.0316 µM
# [8] = second compound 0.0316 µM, first compound 0.1 µM
# [9] = second compound 0.0316 µM, first compound 0.316 µM
# [10] = second compound 0.0316 µM, first compound 1 µM
# [11] = second compound 0.1 µM, first compound 0.0316 µM
# [12] = second compound 0.1 µM, first compound 0.1 µM
# [13] = second compound 0.1 µM, first compound 0.316 µM
# [14] = second compound 0.1 µM, first compound 1 µM
# [15] = second compound 0.316 µM, first compound 0.0316 µM
# [16] = second compound 0.316 µM, first compound 0.1 µM
# [17] = second compound 0.316 µM, first compound 0.316 µM
# [18] = second compound 0.316 µM, first compound 1 µM
# [19] = second compound 1 µM, first compound 0.0316 µM
# [20] = second compound 1 µM, first compound 0.1 µM
# [21] = second compound 1 µM, first compound 0.316 µM
# [22] = second compound 1 µM, first compound 1 µM
# [23] = second compound 3.16 µM, first compound 0.0316 µM
# [24] = second compound 3.16 µM, first compound 0.1 µM
# [25] = second compound 3.16 µM, first compound 0.316 µM
# [26] = second compound 3.16 µM, first compound 1 µM
# [27] = second compound 10 µM, first compound 0.0316 µM
# [28] = second compound 10 µM, first compound 0.1 µM
# [29] = second compound 10 µM, first compound 0.316 µM
# [30] = second compound 10 µM, first compound 1 µM
# [31] = second compound 0.0316 µM, first compound 3.16 µM
# [32] = second compound 0.0316 µM, first compound 10 µM
# [33] = second compound 0.1 µM, first compound 3.16 µM
# [34] = second compound 0.1 µM, first compound 10 µM
# [35] = second compound 0.316 µM, first compound 3.16 µM
# [36] = second compound 0.316 µM, first compound 10 µM
# [37] = second compound 1 µM, first compound 3.16 µM
# [38] = second compound 1 µM, first compound 10 µM
# 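Also: seven day drug exposure begun three days after spheroid seeding.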
# 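For viability, T/C in this document: 100% = DMSO vehicle wells and lower values mean less viable spheroid.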
smiles,measurement,setting,value
O=C(c1ccc(F)c(F)c1Nc1ccc(I)cc1F)N1CC(O)([C@@H]2CCCCN2)C1 + Cc1c(S(C)(=O)=O)c(-c2cc(F)cc(N3CCN(c4ccc(NS(=O)(=O)c5ccc(NC(CCN6CCC(C(=O)OCCCP(=O)(O)O)CC6)CSc6ccccc6)c(S(=O)(=O)C(F)(F)F)c5)cc4)CC3)c2)c(-c2ccc(Cl)cc2)n1C(C)C,IC50,[1],0.283 µM
same,IC50,[2],0.212 µM
same,IC50,[3],0.164 µM
same,IC50,[4],0.232 µM
same,IC50,[5],0.235 µM
same,IC50,[6],0.122 µM
same,"viability, T/C","second compound 0.0316 µM, first compound 0.00316 µM",113%
same,"viability, T/C","second compound 0.0316 µM, first compound 0.01 µM",84.2%
same,"viability, T/C",[7],78.6%
same,"viability, T/C",[8],115%
same,"viability, T/C",[9],44.9%
same,"viability, T/C",[10],14.5%
same,"viability, T/C","second compound 0.1 µM, first compound 0.00316 µM",93.6%
same,"viability, T/C","second compound 0.1 µM, first compound 0.01 µM",91.4%
same,"viability, T/C",[11],76.5%
same,"viability, T/C",[12],50.8%
same,"viability, T/C",[13],54.6%
same,"viability, T/C",[14],18.9%
same,"viability, T/C","second compound 0.316 µM, first compound 0.00316 µM",81.8%
same,"viability, T/C","second compound 0.316 µM, first compound 0.01 µM",92.2%
same,"viability, T/C",[15],110%
same,"viability, T/C",[16],63.8%
same,"viability, T/C",[17],39.2%
same,"viability, T/C",[18],24.1%
same,"viability, T/C","second compound 1 µM, first compound 0.00316 µM",108%
same,"viability, T/C","second compound 1 µM, first compound 0.01 µM",92.1%
same,"viability, T/C",[19],72.5%
same,"viability, T/C",[20],54.7%
same,"viability, T/C",[21],66%
same,"viability, T/C",[22],19.5%
same,"viability, T/C","second compound 3.16 µM, first compound 0.00316 µM",61.8%
same,"viability, T/C","second compound 3.16 µM, first compound 0.01 µM",82.7%
same,"viability, T/C",[23],60.3%
same,"viability, T/C",[24],72%
same,"viability, T/C",[25],43.3%
same,"viability, T/C",[26],12.9%
same,"viability, T/C","second compound 10 µM, first compound 0.00316 µM",75.6%
same,"viability, T/C","second compound 10 µM, first compound 0.01 µM",59.8%
same,"viability, T/C",[27],47.1%
same,"viability, T/C",[28],60.5%
same,"viability, T/C",[29],39.3%
same,"viability, T/C",[30],9.69%
C#Cc1c(F)ccc2cc(O)cc(-c3ncc4c(N5CC6CCC(C5)N6)nc(OCC56CCCN5CC(F)C6)nc4c3F)c12 (stereo not given) + CNC(C)C(=O)NC1CN(S(=O)(=O)c2cccc(S(=O)(=O)N3CCC4CCC(C(=O)NC(c5ccccc5)c5ccccc5)N4C(=O)C(NC(=O)C(C)NC)C3)c2)CCC2CCC(C(=O)NC(c3ccccc3)c3ccccc3)N2C1=O,IC50,"curve of first compound, second compound 0.00316 µM",> 10 µM
same,IC50,"curve of first compound, second compound 0.01 µM",> 10 µM
same,IC50,[1],> 10 µM
same,IC50,[2],> 10 µM
same,IC50,[3],> 10 µM
same,IC50,[4],> 10 µM
same,"viability, T/C","second compound 0.00316 µM, first compound 0.0316 µM",138%
same,"viability, T/C","second compound 0.00316 µM, first compound 0.1 µM",111%
same,"viability, T/C","second compound 0.00316 µM, first compound 0.316 µM",99.4%
same,"viability, T/C","second compound 0.00316 µM, first compound 1 µM",100%
same,"viability, T/C","second compound 0.00316 µM, first compound 3.16 µM",82.1%
same,"viability, T/C","second compound 0.00316 µM, first compound 10 µM",72.1%
same,"viability, T/C","second compound 0.01 µM, first compound 0.0316 µM",97.8%
same,"viability, T/C","second compound 0.01 µM, first compound 0.1 µM",91.2%
same,"viability, T/C","second compound 0.01 µM, first compound 0.316 µM",93.6%
same,"viability, T/C","second compound 0.01 µM, first compound 1 µM",86.1%
same,"viability, T/C","second compound 0.01 µM, first compound 3.16 µM",81.2%
same,"viability, T/C","second compound 0.01 µM, first compound 10 µM",77.3%
same,"viability, T/C",[7],96.5%
same,"viability, T/C",[8],82.4%
same,"viability, T/C",[9],86.3%
same,"viability, T/C",[10],102%
same,"viability, T/C",[31],75.2%
same,"viability, T/C",[32],105%
same,"viability, T/C",[11],123%
same,"viability, T/C",[12],123%
same,"viability, T/C",[13],117%
same,"viability, T/C",[14],97.6%
same,"viability, T/C",[33],88.1%
same,"viability, T/C",[34],94.9%
same,"viability, T/C",[15],78.8%
same,"viability, T/C",[16],97.6%
same,"viability, T/C",[17],111%
same,"viability, T/C",[18],115%
same,"viability, T/C",[35],87.8%
same,"viability, T/C",[36],92.2%
same,"viability, T/C",[19],86.5%
same,"viability, T/C",[20],93.2%
same,"viability, T/C",[21],92.2%
same,"viability, T/C",[22],77.9%
same,"viability, T/C",[37],112%
same,"viability, T/C",[38],106%
C#Cc1c(F)ccc2cc(O)cc(-c3ncc4c(N5CC6CCC(C5)N6)nc(OCC56CCCN5CC(F)C6)nc4c3F)c12 (stereo not given) + Cc1c(S(C)(=O)=O)c(-c2cc(F)cc(N3CCN(c4ccc(NS(=O)(=O)c5ccc(NC(CCN6CCC(C(=O)OCCCP(=O)(O)O)CC6)CSc6ccccc6)c(S(=O)(=O)C(F)(F)F)c5)cc4)CC3)c2)c(-c2ccc(Cl)cc2)n1C(C)C,IC50,[1],> 10 µM
same,IC50,[2],> 10 µM
same,IC50,[3],> 10 µM
same,IC50,[4],> 10 µM
same,IC50,[5],> 10 µM
same,IC50,[6],> 10 µM
same,"viability, T/C",[7],117%
same,"viability, T/C",[8],88.2%
same,"viability, T/C",[9],89.7%
same,"viability, T/C",[10],89.5%
same,"viability, T/C",[31],81.6%
same,"viability, T/C",[32],83.9%
same,"viability, T/C",[11],60.5%
same,"viability, T/C",[12],109%
same,"viability, T/C",[13],105%
same,"viability, T/C",[14],99.7%
same,"viability, T/C",[33],87.1%
same,"viability, T/C",[34],89.6%
same,"viability, T/C",[15],88.2%
same,"viability, T/C",[16],88.3%
same,"viability, T/C",[17],82.6%
same,"viability, T/C",[18],77.3%
same,"viability, T/C",[35],64.6%
same,"viability, T/C",[36],56.9%
same,"viability, T/C",[19],84.4%
same,"viability, T/C",[20],75.1%
same,"viability, T/C",[21],84%
same,"viability, T/C",[22],58.2%
same,"viability, T/C",[37],78.7%
same,"viability, T/C",[38],82.7%
same,"viability, T/C",[23],70.6%
same,"viability, T/C",[24],79.9%
same,"viability, T/C",[25],58.9%
same,"viability, T/C",[26],57.3%
same,"viability, T/C","second compound 3.16 µM, first compound 3.16 µM",95.8%
same,"viability, T/C","second compound 3.16 µM, first compound 10 µM",67.8%
same,"viability, T/C",[27],62.9%
same,"viability, T/C",[28],66.2%
same,"viability, T/C",[29],65.9%
same,"viability, T/C",[30],56.6%
same,"viability, T/C","second compound 10 µM, first compound 3.16 µM",60.1%
same,"viability, T/C","second compound 10 µM, first compound 10 µM",77.5%
C#Cc1c(F)ccc2cc(O)cc(-c3ncc4c(N5CC6CCC(C5)N6)nc(OCC56CCCN5CC(F)C6)nc4c3F)c12 (stereo not given),"viability, T/C",compound 0.0316 µM,89.4% and 98.1% and 81.9%
same,"viability, T/C",compound 0.1 µM,126% and 101% and 93.3%
same,"viability, T/C",compound 0.316 µM,102% and 92.8% and 90.6%
same,"viability, T/C",compound 1 µM,88.3% and 89.3% and 83.3%
same,"viability, T/C",compound 3.16 µM,86.9% and 78.3% and 64.9%
same,"viability, T/C",compound 10 µM,68.7% and 66.2% and 72.1%
same,IC50,curve of compound,> 10 µM
NC(=O)C(=Cn1cnc(-c2cc(C(F)(F)F)cc(C(F)(F)F)c2)n1)c1cncnc1,"viability, T/C",compound 0.000949 µM,106% and 86.6% and 101%
same,"viability, T/C",compound 0.003 µM,105% and 110% and 63.5%
same,"viability, T/C",compound 0.00949 µM,101% and 62.7% and 81.4%
same,"viability, T/C",compound 0.03 µM,87.2% and 69% and 97.2%
same,"viability, T/C",compound 0.0949 µM,89.4% and 72.2% and 65.5%
same,"viability, T/C",compound 0.3 µM,72.1% and 90.1% and 82.9%
same,IC50,curve of compound,> 0.3 µM
